# Measurements: US8354438B2, “Neurological functions” (priority 2001, dated 2013)
# Where “and” joins values, the source holds several entries; their conditions need not be identical. Equal entries are not always repeated.
# Columns and labels:
# [1] = system: animals subject to hyperbaric oxygen; conditions: reported by Bondarenko; cited from earlier work
# carnosinase = conditions: compared with the parent compound carnosine; Boldyrev 2000; cited from earlier work
# [2] = system: patients with autism, pervasive developmental disorder, brain injury, cerebral palsy and epilepsy; assay: Carnosine dietary supplement to improve cognitive functions impaired by neurological disorders (Example 2); type: in vivo, human; conditions: carnosine 200 mg to 2,000 mg per day, orally
# Procedure: It is hypothesized that carnosine may improve cognitive functions of patients suffering from various disorders. These disorders include autism, pervasive developmental disorder, brain injury, cerebral palsy and epilepsy. There are currently no drugs or treatments available whose primary function is to elevate carnosine levels as a treatment for the previously mentioned disorders. Patients afflicted with the above disorders were treated with a dietary supplement of carnosine in dosages of 200 mg to 2,000 mg per day. The carnosine supplement is available in gel capsule form from Alfa Chem (Kings Point, N.Y.).
# The carnosine supplement can be administered orally several times daily. The results indicated an increase in cognitive processing speed, an increase in language skills, and improved motor skills. Patients have increased their amount of speech and language and the level of maturity of speech.
# adult clinical trials = conditions: among 691 cases of adult clinical trials; Matsukura and Tanaka 2000; cited from earlier work
# [3] = system: rat model genetically predisposed to audiogenic epilepsy; conditions: carnosine injected prior to acoustic stress; Stvolinsky and Dobrota 2000; cited from earlier work
# [4] = system: children with intractable seizures; assay: L-carnosine add-on therapy in children with intractable seizures, EEG and seizure frequency (Example 3); type: in vivo, human; conditions: after 10 weeks at 400 mg p.o. b.i.d.
# Description: L-carnosine is an amino acid dipeptide (histidine and alanine), that may indirectly affect spike and wave discharges by altering GABA bioavailability or affecting copper and zinc influx at the cellular level. […] We hypothesized that carnosine ingestion would modulate homocarnosine in the brain, causing spike and wave activity to decrease and seizure control to improve. We gave L-carnosine to four patents as add-on therapy for intractable spike-wave discharge and documented changes in both clinical (overt seizures) and physiological (EEG) status.
# Seven children (3 female, 4 male, age range 2-12) met inclusion criteria. All had intractable seizures for at least two years, had failed at least 3 anticonvulsants, had documented, abnormal generalized or secondarily generalized spike-wave, atypical absence, or Lennox-Gastaut Syndrome. All families signed written consent from an IRB approved protocol. All children were evaluated with a Baseline EEG on the same day they were started on 400 mg b.i.d. of L-carnosine. Carnosine from, for example, Alfa Chem in either powder or capsule form. Carnosine may also be obtained from MAYPRO (Purchase, N.Y.), as well as various other suppliers. Post-treatment EEG was undertaken after 10 weeks of L-carnosine therapy. No other concurrent medications were changed. All patients had failed multiple medication treatments prior to the addition of carnosine. These medications included valproic acid, topimirate, benzodiazepines, steroids, carbamazepine, phenytoin, zonisamide, lamotrigine, and phenobarbital.
# animals = conditions: both decreasing mortality and improving recovery; Stvolinsky and Dobrota 2000; cited from earlier work
# [5] = system: children with Autistic Spectrum Disorder; assay: 8 week double-blind placebo-controlled carnosine study in children with Autistic Spectrum Disorder (Example 4); type: in vivo, human; conditions: for Fax ratings (week 2 vs. week 6): on carnosine 400 mg twice a day, Mean (SD)
# Description: The following protocol was designed to target the purported brain region of dysfunction in ASD, via supplementation with a naturally-occurring amino acid which is believed to act upon frontal lobe systems or GABA receptors. We sought to eliminate the “expectancy effect” of medication augmentation by enrolling children in a study so that both the clinicians and parents were blinded to group assignment.
# Children were included for study if they met the following criteria: ages 3-12, prior diagnoses of Autistic Spectrum Disorder (including either Pervasive Developmental Disorder or Autistic Disorder, by DSMIVR). American Psychiatric Association. Diagnostic and Statistical Manual of Mental Disorders, 4th ed. Washington D.C., 1993. […] Children were enrolled in the study irrespective of cognitive ability level.
# All children were tested at baseline in the following domains: expressive language (Expressive One Word Picture Vocabulary test, EOWPVT), receptive language (Receptive One Word Picture Vocabulary test, ROWPVT), autism severity ratings (Childhood Autism Rating Scale; CARS, and Gilliam Autism Rating Scales; GARS), and Clinical Global linpresssions (CGI) completed by parents. At baseline and eight-week testing, all children underwent the CARS, GARS, EOWPVT, ROWPVT, and CGI. Schopler, E., Reichler, R. J., Renner, B. R. The Childhood Autism Rating Scale: CARS. Los Angeles, Calif.: Western Psychological Sciences 1988. Gilliam, J. E. The Gilliam Autism Rating Scale: GARS. Austin, Tex.: Pro-Ed Inc. 1995. Gardner, M. F. Receptive One-Word Picture Vocabulary Test: ROWPVT. Novato, Calif.: Academic Therapy Publications 1985. Gardner, M. F. Expressive One-Word Picture Vocabulary Test (Revised): EOWPVT-R. Novato, Calif.: Academeic Therapy Publication 1990. Children were tested with their parents in the room of a pediatric neurology clinic in a room dedicated to assessment. Parents signed informed written consent (approved by the Lake Forest Hospital Institutional Review Board) before being randomly assigned to either active agent or placebo, and reporting of adverse events was explained per office emergency policy. Because of our prior experience with the substance in an open-label format, we were able to caution regarding the following potential adverse events: hyperactivity, excitability
# Both placebo and active substance were identical in powdered appearance, without taste or smell. All pills were contained by a gelatin capsule; parents were instructed to mix the powder with either food or drink. Dosage of carnosine was 400 mg by mouth twice a day.
# Every two weeks, parents faxed a CGI regarding their child. The CGI was a 5 point rating scale covering the following domains: (1) Socialization, interaction with others during play, (2) Spontaneous, expressive language or vocalizations, (3) Attention span, “focus”/eye contact, alertness level, (4) Agitation and hyperactivity or lethargy, energy level, Petroff, O. A. C. et al., Neurology 2001; 56:709-715. Coordination, body use, gross motor movements, (6) Anxiety, rigidity, preservation, adaptation to change. A score of “0” indicated “No Change”, a score of “5” indicated a “Great improvement.” Parents were not allowed to refer back to faxes from the prior two week period, so that each rating was essentially “blinded” to the week before. An overall baseline CGI was then compared with an ending CGI.
# Thirty-one children (21 M, mean age=7.45; range 3.2-12.5) meeting inclusion criteria were enrolled in an 8 week, double-blind placebo-controlled study. Children were entered randomly into one of two groups: Group I (n=17) received a placebo for the first 8 weeks, while Group II (n=14) received the active substance. Children were assessed at Baseline in the following domains: […]
# [6] = 8-Week on carnosine 400 mg twice a day, n = 14, Mean (SD), vs baseline .01, vs placebo NS
# [7] = 8-Week on carnosine 400 mg twice a day, n = 14, Mean (SD), vs baseline NS, vs placebo NS
# [8] = Baseline, active carnosine group n = 14, Mean (SD)
compound,measurement,setting,value
"NCCCC(=O)N[C@@H](Cc1cnc[nH]1)C(=O)O [homocarnosine, γ-Aminobutyryl-L-histidine]",convulsions under hyperbaric oxygen,[1],protects against the convulsions
same,rate of hydrolysis,carnosinase,negligible
β-Alanlyl-L-histidine [carnosine],amount of speech and language and level of maturity of speech,[2],increased
same,cognitive processing speed,[2],increase
same,language skills,[2],increase
same,motor skills,[2],improved
same,receptive language,[2],improved
same,symptomatic side effects,adult clinical trials,no symptomatic side effects
same,audiogenic seizures,[3],moderation of such seizures
same,patients with improved seizure frequency (of 7),[4],7 patients
same,children with decreased frequency of polyspikes,[4]; 7 children,2 children
same,children with improved background and decreased electrographic slow-spike and wave activity,[4]; 7 children,2 children
same,children with improved secondarily generalized spike-wave activity,[4]; 7 children,1 child
same,children with no significant EEG changes,[4]; 7 children,2 children
same,children with documented improved EEG findings (of 7),[4]; add-on,5 children
same,"patients with reported improvements in global cognition, behavior, and language function (of 7)",[4]; not evaluated formally,7 patients
same,"resistance towards ionizing radiation, hypobaric hypoxia, and supercooling",animals,enhances the resistance
same,CGI,"[5]; 8-Week on carnosine 400 mg by mouth twice a day, n = 14, Mean (SD), vs baseline .06, vs placebo NS",16.39 (4.36)
same,GARS,[5]; [6],44.36 (14.94) and 44.35 (14.93)
same,GARS Socialization Scale,[5]; [6],13.36 (6.58)
same,ROWPVT (age-adjusted),[5]; [6],47.85 (28.37) and 47.86 (28.37)
same,ROWPVT (raw),[5]; [6],44.64 (26.56)
same,GARS Communication Scale,"[5]; 8-Week on carnosine 400 mg twice a day, n = 14, Mean (SD), vs baseline .03, vs placebo NS",18.14 (6.27)
same,GARS Behavior Scale,"[5]; 8-Week on carnosine 400 mg twice a day, n = 14, Mean (SD), vs baseline .04, vs placebo NS",12.85 (5.95)
same,CARS,"[5]; 8-Week on carnosine 400 mg twice a day, n = 14, Mean (SD), vs baseline .07, vs placebo NS",29.75 (7.53)
same,EOWPVT (age-adjusted),[5]; [7],43.78 (28.22)
same,EOWPVT (raw),[5]; [7],37.28 (25.66)
same,CARS,[5]; [8],31.71 (6.55)
same,CGI,[5]; [8],14.50 (3.65)
same,EOWPVT (age-adjusted),[5]; [8],40.71 (23.44)
same,EOWPVT (raw),[5]; [8],35.36 (20.87)
same,GARS,[5]; [8],55.50 (16.35)
same,GARS Behavior Scale,[5]; [8],15.71 (6.65)
same,GARS Communication Scale,[5]; [8],21.64 (7.99)
same,GARS Socialization Scale,[5]; [8],18.14 (6.30)
same,ROWPVT (age-adjusted),[5]; [8],40.57 (24.55)
same,ROWPVT (raw),[5]; [8],38.00 (23.68)
same,side effects reported by parents,[5]; alleviated by decreasing the dose,only sporadic hyperactivity
same,discontinuation of the study due to side effects,"[5]; carnosine 400 mg twice a day, 8 weeks",Not a single child
same,"receptive speech, socialization, and behavior in children with autistic spectrum disorders","[5]; supplementation with carnosine, 8 weeks",significantly improve
same,Fax ratings (week 2 vs. week 6),[5]; week 2 (column Baseline),2.03 (2.24)
same,Fax ratings (week 2 vs. week 6),"[5]; week 6 (column 8-Week), vs week 2 .04",4.92 (5.69)
